Measurements reported in ChEMBL document CHEMBL3774331, “Inhibition of tau aggregation using a naturally-occurring cyclic peptide scaffold” (Eur J Med Chem, 2016).
Activity calls are given as the source filed them. The calls are words filed in the database; no cut-off is given here. Where a SMILES comes first, the peptide text is derived from it. Bridges are numbered along the chain shown (N, C = ends).

Test system: not listed separately
Assay: Inhibition of TAU derived synthetic hexapeptide AcPHF6 fibril formation incubated for 60 mins by thioflavin T fluorescence assay
In the case of `CC[C@H](C)[C@@H]1NC(=O)[C@H](CCC(N)=O)NC(=O)[C@H](C(C)C)NC(=O)CNC(=O)[C@H]2CCCN2C(=O)[C@H](C(C)C)NC(=O)[C@H](C)N(C)C(=O)[C@H]([C@@H](C)CC)NC(=O)[C@@H]2CSSC[C@H](NC1=O)C(=O)N[C@@H](Cc1ccc(O)cc1)C(=O)N[C@@H](CCCCN)C(=O)N[C@@H](CO)C(=O)N[C@@H]([C@@H](C)CC)C(=O)N1CCC[C@H]1C(=O)N1CCC[C@H]1C(=O)N[C@@H]([C@@H](C)CC)C(=O)N2`, the inhibition is reported as “Dose-dependent effect”.

Test system: not listed separately
Assay: Binding affinity to thioflavin S at compound:AcPHF6 ratio of 1:1 to 1:64 incubated for 120 mins by fluorescence assay
With `CC(C)[C@H](NC(=O)CN)C(=O)N[C@H]1CSSC[C@@H](C(=O)N[C@@H](CCCNC(=N)N)C(=O)N[C@@H](CCCNC(=N)N)C(=O)O)NC(=O)[C@@H](C(C)C)NC(=O)C2CSSCC(NC(=O)[C@H](CCCNC(=N)N)NC1=O)C(=O)N[C@@H](C(C)C)C(=O)N[C@H]1CSSC[C@H](NC(=O)[C@H](C(C)C)NC(=O)CNC(=O)[C@H](CCCNC(=N)N)NC(=O)[C@H](CCCNC(=N)N)NC1=O)C(=O)N[C@@H](CCCNC(=N)N)C(=O)N2` the Activity was “Active”.

Test system: not listed separately
Assay: Activation of TAU derived synthetic hexapeptide AcPHF6 fibril formation at compound:AcPHF6 ratio of 1:1 to 1:64 incubated for 60 mins by thioflavin S fluorescence assay
In the case of `CC(C)[C@H](NC(=O)CN)C(=O)N[C@H]1CSSC[C@@H](C(=O)N[C@@H](CCCNC(=N)N)C(=O)N[C@@H](CCCNC(=N)N)C(=O)O)NC(=O)[C@@H](C(C)C)NC(=O)C2CSSCC(NC(=O)[C@H](CCCNC(=N)N)NC1=O)C(=O)N[C@@H](C(C)C)C(=O)N[C@H]1CSSC[C@H](NC(=O)[C@H](C(C)C)NC(=O)CNC(=O)[C@H](CCCNC(=N)N)NC(=O)[C@H](CCCNC(=N)N)NC1=O)C(=O)N[C@@H](CCCNC(=N)N)C(=O)N2`, the Activity is reported as “Active”.

Test system: not listed separately
Assay: Inhibition of TAU derived synthetic hexapeptide AcPHF6 fibril formation at compound:AcPHF6 ratio of 1:1 to 1:64 incubated for 60 mins by thioflavin S fluorescence assay
For `CC[C@H](C)[C@@H]1NC(=O)[C@H](CCC(N)=O)NC(=O)[C@H](C(C)C)NC(=O)CNC(=O)[C@H]2CCCN2C(=O)[C@H](C(C)C)NC(=O)[C@H](C)NC(=O)[C@H](Cc2ccccc2)NC(=O)[C@@H]2CSSC[C@H](NC1=O)C(=O)N[C@@H](Cc1ccc(O)cc1)C(=O)N[C@@H](CCCCN)C(=O)N[C@@H](CO)C(=O)N[C@@H]([C@@H](C)CC)C(=O)N1CCC[C@H]1C(=O)N1CCC[C@H]1C(=O)N[C@@H]([C@@H](C)CC)C(=O)N2`, the inhibition was “Active”.
In the case of `CC[C@H](C)[C@@H]1NC(=O)[C@H](CCC(N)=O)NC(=O)[C@H](C(C)C)NC(=O)CNC(=O)[C@H]2CCCN2C(=O)[C@H](C(C)C)NC(=O)[C@H](CCCCN)NC(=O)[C@H]([C@@H](C)CC)NC(=O)[C@@H]2CSSC[C@H](NC1=O)C(=O)N[C@@H](Cc1ccc(O)cc1)C(=O)N[C@@H](CCCCN)C(=O)N[C@@H](CO)C(=O)N[C@@H]([C@@H](C)CC)C(=O)N1CCC[C@H]1C(=O)N1CCC[C@H]1C(=O)NCC(=O)N2`, the inhibition is reported as “Active”.
For `CC[C@H](C)[C@@H]1NC(=O)[C@@H]2CCCN2C(=O)[C@@H]2CCCN2C(=O)[C@H]([C@@H](C)CC)NC(=O)[C@H](CO)NC(=O)[C@H](CCCCN)NC(=O)[C@H]([C@@H](C)O)NC(=O)[C@H](C)NC(=O)[C@H](CCCNC(=N)N)NC(=O)CNC(=O)[C@H](CC(=O)O)NC(=O)[C@@H]2CCCN2C(=O)[C@H](Cc2ccccc2)NC(=O)[C@H](C)NC1=O` (cyclo(AFPDGRATKSIPPI)), the inhibition was “Active”.
In the case of `CC[C@H](C)[C@@H]1NC(=O)[C@H](CCC(N)=O)NC(=O)[C@H](C(C)C)NC(=O)CNC(=O)[C@H](CC(=O)O)NC(=O)[C@@H]2CCCN2C(=O)[C@H](C(C)C)NC(=O)[C@H](CCCCN)NC(=O)[C@H]([C@@H](C)CC)NC(=O)[C@@H]2CSSC[C@H](NC1=O)C(=O)N[C@@H](Cc1ccc(O)cc1)C(=O)N[C@@H](CCCCN)C(=O)N[C@@H](CO)C(=O)N[C@@H]([C@@H](C)CC)C(=O)N1CCC[C@H]1C(=O)N1CCC[C@H]1C(=O)NCC(=O)N2` (cyclo(CIKVPDGVQICYKSIPPG); disulfide 1-11), the inhibition is reported as “Active”.
With `CC[C@H](C)[C@@H]1NC(=O)[C@H](CCC(N)=O)NC(=O)[C@H](C(C)C)NC(=O)CNC(=O)[C@H]2CCCN2C(=O)[C@H](C(C)C)NC(=O)[C@H](CCC(N)=O)NC(=O)[C@H]([C@@H](C)CC)NC(=O)[C@@H]2CSSC[C@H](NC1=O)C(=O)N[C@@H](Cc1ccc(O)cc1)C(=O)N[C@@H](CCCCN)C(=O)N[C@@H](CO)C(=O)N[C@@H]([C@@H](C)CC)C(=O)N1CCC[C@H]1C(=O)N1CCC[C@H]1C(=O)N[C@@H]([C@@H](C)CC)C(=O)N2` the inhibition was “Active”.
With `CC[C@H](C)[C@@H]1NC(=O)[C@@H]2CSSC[C@H](NC(=O)[C@H]([C@@H](C)CC)NC(=O)[C@H](CCC(N)=O)NC(=O)[C@H](C(C)C)NC(=O)CNC(=O)[C@H]3CCCN3C(=O)[C@H](C(C)C)NC(=O)[C@H](C)NC1=O)C(=O)N[C@@H](Cc1ccc(O)cc1)C(=O)N[C@@H](CCCCN)C(=O)N[C@@H](CO)C(=O)N[C@@H]([C@@H](C)CC)C(=O)N1CCC[C@H]1C(=O)N1CCC[C@H]1C(=O)N[C@@H]([C@@H](C)CC)C(=O)N2` the inhibition was “Active”.
For `CC[C@@H](C)[C@H]1NC(=O)[C@@H]2CCCN2C(=O)[C@@H]2CCCN2C(=O)[C@H]([C@@H](C)CC)NC(=O)[C@H](CO)NC(=O)[C@H](CC(N)=O)NC(=O)[C@H](CCC(=O)O)NC(=O)[C@@H]2CSSC[C@H](NC1=O)C(=O)N[C@@H](CCC(N)=O)C(=O)N[C@H](CCCCN)C(=O)N[C@H](CC(C)C)C(=O)N1CCC[C@H]1C(=O)N[C@H](CC(=O)O)C(=O)NCC(=O)N[C@H](CC(C)C)C(=O)N[C@@H](Cc1ccc(O)cc1)C(=O)N[C@H](CCC(N)=O)C(=O)N2`, the inhibition was “Active”.

Test system: Serum
Assay: Stability in 100% human serum at 30 uM after 24 hrs
Type: ADME
In the case of `CC[C@H](C)[C@@H]1NC(=O)[C@H](CCC(N)=O)NC(=O)[C@H](C(C)C)NC(=O)CNC(=O)[C@H](CC(=O)O)NC(=O)[C@@H]2CCCN2C(=O)[C@H](C(C)C)NC(=O)[C@H](CCCCN)NC(=O)[C@H]([C@@H](C)CC)NC(=O)[C@@H]2CSSC[C@H](NC1=O)C(=O)N[C@@H](Cc1ccc(O)cc1)C(=O)N[C@@H](CCCCN)C(=O)N[C@@H](CO)C(=O)N[C@@H]([C@@H](C)CC)C(=O)N1CCC[C@H]1C(=O)N1CCC[C@H]1C(=O)NCC(=O)N2` (cyclo(CIKVPDGVQICYKSIPPG); disulfide 1-11), the Stability is reported as “Stable”.
